Reference: patent publication US20140308317A1, “Polymeric Compounds And Methods Of Making And Using The Same” (CELLCEUTIX CORPORATION, priority 2012, published 2014)
Converted amounts (≈) assume the structure as drawn.

Tests used:
[1] = tested on: Klebsiella pneumoniae ATCC 13883; test: Minimum Inhibitory Concentration (MIC), modified microbroth dilution; type: cell-based; settings: K. pneumoniae (13883), overnight incubation (18 hours)
[2] = Cytotoxicity colorimetric (tetrazolium) assay; type: cell-based, mouse; settings: mouse, NIH/3T3 cells (CRL-1658), NIH/3T3 cells; one hour with compound in serum-free media
In short: (§1)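 HepG2 (MEM, 10% FBS) and NIH/3T3 (DMEM, 10% BCS) monolayers seeded at 2×10^4 cells/well 24 h before use, then exposed to compounds for one hour in serum-free medium. After return to serum-containing medium, viable cells read by tetrazolium bioreduction to formazan. EC50 in μg/mL from four-parameter logistic fit.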

NIH/3T3 cells, CRL-1658 = test: Cytotoxicity colorimetric (tetrazolium) assay; type: cell-based, mouse; settings: NIH/3T3 cells; one hour with compound in serum-free media
In short: as §1

[3] = tested on: Pseudomonas aeruginosa ATCC 10145; test: Minimum Inhibitory Concentration (MIC), modified microbroth dilution; type: cell-based; settings: P. aeruginosa (10145), overnight incubation (18 hours)
E. Coli ATCC 25922 = test: as above; type: cell-based; settings: E. coli (25922), overnight incubation (18 hours)
[4] = tested on: Enterococcus faecalis ATCC 29212; test: as above; type: cell-based; settings: E. faecalis (29212), overnight incubation (18 hours)
[5] = tested on: Staphylococcus aureus ATCC 27660; test: as above; type: cell-based; settings: S. aureus (27660), overnight incubation (18 hours)
[6] = Cytotoxicity colorimetric (tetrazolium) assay; type: cell-based, human; settings: human, HepG2 cells (HB-8065), HepG2 cells; one hour with compound in serum-free media
In short: as §1

HepG2, HB-8065 = test: Cytotoxicity colorimetric (tetrazolium) assay; type: cell-based, human; settings: HepG2 cells; one hour with compound in serum-free media
In short: as §1

[7] = tested on: S. enteritidis ATCC 13076; test: Time-kill study; type: cell-based
Description: Time-kill studies of the compounds versus S. enteritidis ATCC 13076, E. coli ATCC25922, E. coli (lab strain) D31, and S. aureus ATCC27660 were determined in a standard protocol by measuring the time it takes to reduce the initial inoculums 3 log units. Three mL of cation-adjusted Mueller-Hinton medium was inoculated with 20 μL of frozen bacterial stock and incubated at 37° C. on a shaker platform (at 250 rpm) overnight. The suspension was diluted to approximately 5×10^5 cfu/mL and treated with 2×, 5×, 10×, and 20×MIC (MIC=1 μg/mL). The compound stock solutions were prepared at 10 mg/mL in DMSO. Time points were collected and viable bacteria were counted on MH Agar plates after an 18 hour incubation.
The time kill study was carried on Compound 200 against S. enteritidis ATCC 13076.

SMILES | MIC50 ([1]; Klebsiella pneumoniae, ATCC13883, read-out: MIC50 K. Pnuemnoiae) [mg/L] | EC50 at 1 h [2] [mg/L] | EC50 NIH 3T3 (cytotoxicity) (NIH/3T3 cells, CRL-1658) [mg/L] | MIC50 ([3]; Pseudomonas aeruginosa, ATCC10145, read-out: MIC50 P. Aeruginosa) [mg/L] | MIC50 (E. Coli ATCC 25922; Escherichia coli, ATCC25922, read-out: MIC50 E. coli) [mg/L] | MIC50 ([4]; Enterococcus faecalis, ATCC29212, read-out: MIC50 E. faecalis) [mg/L] | MIC50 ([5]; Staphylococcus aureus, ATCC27660, read-out: MIC50 S. aureus) [mg/L] | EC50 at 1 h [6] [mg/L] | EC50 HepG2 (cytotoxicity) (HepG2, HB-8065) [mg/L] | MIC50 K. Pnuemnoiae [1] [mg/L] | MIC50 P. Aeruginosa [3] [mg/L] | MIC50 E. coli (E. Coli ATCC 25922) [mg/L] | MIC50 E. faecalis [4] [mg/L] | MIC50 S. aureus [5] [mg/L] | time at which bacterial growth was reduced more than 3 log ([7]; 2×MIC) [hour] | time at which bacterial growth was reduced more than 3 log ([7]; 5×MIC) [hour] | time at which bacterial growth was reduced more than 3 log ([7]; 10×MIC) [hour]
NCCCOc1cc(OCCCN)cc(-c2ccc3c(c2)C(=O)c2cc(-c4cc(OCCCN)cc(OCCCN)c4)ccc2CC3)c1 [Compound 156] | 12.5 (≈ 19.1 µM) | 49.4 (≈ 75.7 µM) | 88.1 (≈ 135 µM) | 6.25 (≈ 9.57 µM) | 3.13 (≈ 4.79 µM) | 12.5 (≈ 19.1 µM) | 0.098 (≈ 0.15 µM) | 74.2 (≈ 114 µM) | 143.7 (≈ 220 µM) |  |  |  |  |  |  |  | 
NCCN(CCN)Cc1ccc(F)c(-c2ccc3sc4ccc(-c5cc(CN(CCN)CCN)ccc5F)cc4c3c2)c1 [Compound 180] |  |  | 43.1 (≈ 71.5 µM) |  |  |  |  |  | 104 (≈ 173 µM) | 1.56 (≈ 2.59 µM) | 3.13 (≈ 5.19 µM) | 1.56 (≈ 2.59 µM) | 3.13 (≈ 5.19 µM) | 0.098 (≈ 0.163 µM) |  |  | 
NCCCN(CCCN)Cc1cccc(-c2ccc3sc4ccc(-c5cccc(CN(CCCN)CCCN)c5)cc4c3c2)c1 [Compound 181] |  |  | 83.1 (≈ 133 µM) |  |  |  |  |  | 212 (≈ 340 µM) | 6.25 (≈ 10 µM) | 6.25 (≈ 10 µM) | 3.13 (≈ 5.02 µM) | 6.25 (≈ 10 µM) | 0.195 (≈ 0.313 µM) |  |  | 
NCCCOc1cc(-c2ccc3sc4ccc(-c5cc(OCCCN)c(OCCCN)c(OCCCN)c5)cc4c3c2)cc(OCCCN)c1OCCCN [Compound 184] |  |  | 57 (≈ 73.5 µM) |  |  |  |  |  | 100 (≈ 129 µM) | 12.5 (≈ 16.1 µM) | 6.25 (≈ 8.06 µM) | 6.25 (≈ 8.06 µM) | 6.25 (≈ 8.06 µM) | 1.56 (≈ 2.01 µM) |  |  | 
NCCCOc1cc(OCCCN)cc(-c2ccc3sc4ccc(-c5cc(OCCCN)cc(OCCCN)c5)cc4c3c2)c1 [Compound 200] |  |  | 155 (≈ 246 µM) |  |  |  |  |  | 126 (≈ 200 µM) | 1.56 (≈ 2.48 µM) | 3.13 (≈ 4.98 µM) | 0.78 (≈ 1.24 µM) | 0.39 (≈ 0.62 µM) | 0.049 (≈ 0.0779 µM) | 3.75 | 1.55 | 1.35
